Laboratory results published in US20250059162A1, “MULTI-PROTEIN DEGRADATION AGENT HAVING IMIDE SKELETON” (SUZHOU KINTOR PHARMACEUTICALS, INC., priority 2021, published 2025).

What follows are molecules tested on HL60 cells (assay: Anti-proliferation on HL60 cells (CellTiter-Glo, 3 days)). Conditions: Homo sapiens, HL-60, 72 h, 3 days incubation, CTG luminescence, IC50 by XLfit, read-out: HL60 cells Proliferation inhibitory activity.
Type: cell-based
Method: HL60 cells (Cell Bank of Chinese Academy of Sciences) in the logarithmic growth phase were counted and plated evenly in a 96-well transparent bottom white plate at 20000 cells per well and 100 μL per well.
A certain amount of the compound of the present invention was weighed and diluted with DMSO to a 10 mM stock solution. The culture medium RPMI-1640 (meilunbio, MA0215) corresponding to the cells were taken, and the compound was diluted to the concentration required by the test, shaken gently and mixed evenly. 50 μL of the gradient dilution of the diluted compound was added to each well of the plated cells, and 50 μL of 0.1% DMSO was added to the control group. The plate was shaken gently, mixed evenly and incubated in a cell culture incubator for 3 days.
• 3.1 The CellTiter-Glo™ (CTG) (purchased from Promega, Cat. No. G9242) reagent was taken in advance from the −20° C. refrigerator and equilibrated to room temperature in the dark. Cell Titer-Glo buffer and Cell Titer-Glo substrate were mixed at a ratio of 1:1 to prepare a CTG detection reagent. • 3.2 The 96-well plate was taken out and inspected under a microscope for growth. • 3.3 The bottom of the 96-well plate was tagged with white paper, and then the plate was wrapped with tin foil paper, shaken at 37° C. at 300 r for 10 min and mixed evenly. • 3.4. 50 μL of CTG detection reagent was added to each well, Luminescence signal was detected using a microplate reader Biotek Synergy Hi, and the inhibition rate was calculated. IC50 values of the compounds were calculated by XLfit 5.5.0 software to evaluate the proliferation inhibitory activity on HL60 cells.

Row | Compound | IC50
1 | O=C1CCC(N2Cc3cc(C(=O)NCC4CCN(C(=O)NCCn5c6ccccc6c6cccnc65)CC4)ccc3C2=O)C(=O)N1 (centres unmarked) [Compound A2] | 58 nM
2 | O=C1CCC(N2Cc3cc(NC(=O)CC4CCN(CC(=O)N5CCCc6ccccc65)CC4)ccc3C2=O)C(=O)N1 (centres unmarked) [Compound A3] | 7.9 nM
3 | O=C(CN1CCC(CC(=O)Nc2ccc3c(c2)CN(C2CCC(=O)NC2=O)C3=O)CC1)NCc1cccc2ccccc12 (centres unmarked) [Compound A5] | 10 nM
4 | O=C(CN1CCC(CNC(=O)c2ccc3c(c2)CN(C2CCC(=O)NC2=O)C3=O)CC1)NCc1cccc2ccccc12 (centres unmarked) [Compound A6] | 192 nM
5 | O=C(CN1CCC(CNC(=O)c2ccc3c(c2)CN(C2CCC(=O)NC2=O)C3=O)CC1)NCCn1c2ccccc2c2cccnc21 (centres unmarked) [Compound A7] | 94 nM
6 | O=C(CN1CCC(CC(=O)Nc2ccc3c(c2)CN(C2CCC(=O)NC2=O)C3=O)CC1)NCCn1c2ccccc2c2cccnc21 (centres unmarked) [Compound A8] | 14 nM
7 | O=C(CN1CCC(CC(=O)Nc2ccc3c(c2)CN(C2CCC(=O)NC2=O)C3=O)CC1)NCCc1cccc2ccccc12 (centres unmarked) [Compound A10] | 7.4 nM
8 | O=C1CCC(N2Cc3cc(NC(=O)CC4CCN(C(=O)Cn5c6ccccc6c6cccnc65)CC4)ccc3C2=O)C(=O)N1 (centres unmarked) [Compound A11] | 39 nM
9 | O=C1CCC(N2Cc3cc(C(=O)NCC4CCN(c5cccc(-c6cccc7ccccc67)c5)CC4)ccc3C2=O)C(=O)N1 (centres unmarked) [Compound A21] | 2.9 nM
10 | O=C1CCC(N2Cc3cc(C(=O)NCC4CCN(c5ncc(-c6cccc7ccccc67)s5)CC4)ccc3C2=O)C(=O)N1 (centres unmarked) [Compound A23] | 0.2 nM
11 | O=C1CCC(N2Cc3cc(C(=O)NCC4CCN(c5ncc(-c6ccc7ccccc7c6)cn5)CC4)ccc3C2=O)C(=O)N1 (centres unmarked) [Compound A39] | 2.6 nM
12 | O=C1CCC(N2Cc3cc(C(=O)NCC4CCN(c5ccc(-c6ccc7ccccc7c6)cn5)CC4)ccc3C2=O)C(=O)N1 (centres unmarked) [Compound A40] | 4.3 nM
13 | O=C1CCC(N2Cc3cc(C(=O)NCC4CCN(c5ccc(-c6cccc7cccnc67)cn5)CC4)ccc3C2=O)C(=O)N1 (centres unmarked) [Compound A42] | 0.2 nM
14 | O=C1CCC(N2Cc3cc(C(=O)NCC4CCN(c5ccc(-c6cccc7cccnc67)nc5)CC4)ccc3C2=O)C(=O)N1 (centres unmarked) [Compound A44] | 5 nM
15 | O=C1CCC(N2Cc3cc(C(=O)NCC4CCN(c5ccc(-c6nccc7ccccc67)cn5)CC4)ccc3C2=O)C(=O)N1 (centres unmarked) [Compound A45] | < 0.2 nM
16 | O=C1CCC(N2Cc3cc(NC(=O)CC4CCN(c5ncc(Br)cn5)CC4)ccc3C2=O)C(=O)N1 (centres unmarked) [Compound A48] | 4.1 nM
17 | O=C1CCC(N2Cc3cc(NC(=O)CC4CCN(c5ncc(C6CC6)cn5)CC4)ccc3C2=O)C(=O)N1 (centres unmarked) [Compound A49] | 1.5 nM
18 | CC(C)c1cnc(N2CCC(CC(=O)Nc3ccc4c(c3)CN(C3CCC(=O)NC3=O)C4=O)CC2)nc1 (centres unmarked) [Compound A50] | 0.6 nM
19 | O=C1CCC(N2Cc3cc(C(=O)NCC4CCN(c5ncc(-c6cccc(Cl)c6)cn5)CC4)ccc3C2=O)C(=O)N1 (centres unmarked) [Compound A52] | 1.4 nM
20 | O=C1CCC(N2Cc3cc(NC(=O)CC4CCN(c5ncc(-c6ccc(Cl)cc6)cn5)CC4)ccc3C2=O)C(=O)N1 (centres unmarked) [Compound A55] | < 0.2 nM
21 | O=C1CCC(N2Cc3cc(NC(=O)CC4CCN(c5ncc(-c6ccccn6)cn5)CC4)ccc3C2=O)C(=O)N1 (centres unmarked) [Compound A59] | 0.7 nM

Other lines, results leading:

Row | IC50 | Compound
22 | 190 nM | O=C1CCC(N2Cc3cc(NC(=O)CC4CCN(C(=O)NCc5cccc6ccccc56)CC4)ccc3C2=O)C(=O)N1 (centres unmarked) [Compound A1]
23 | 6 nM | O=C1CCC(N2Cc3cc(NC(=O)CC4CCN(CC(=O)Nc5cccc6ccccc56)CC4)ccc3C2=O)C(=O)N1 (centres unmarked) [Compound A9]
24 | 4.5 nM | O=C1CCC(N2Cc3cc(C(=O)NCC4CCN(c5nccc(-c6cccc7ccccc67)n5)CC4)ccc3C2=O)C(=O)N1 (centres unmarked) [Compound A12]
25 | 6.4 nM | O=C1CCC(N2Cc3cc(NC(=O)CC4CCN(c5nccc(-c6cccc7ccccc67)n5)CC4)ccc3C2=O)C(=O)N1 (centres unmarked) [Compound A13]
26 | 0.9 nM | O=C1CCC(N2Cc3cc(C(=O)NCC4CCN(c5cccc(-c6cccc7ccccc67)n5)CC4)ccc3C2=O)C(=O)N1 (centres unmarked) [Compound A14]
27 | 1 nM | O=C1CCC(N2Cc3cc(NC(=O)CC4CCN(c5cccc(-c6cccc7ccccc67)n5)CC4)ccc3C2=O)C(=O)N1 (centres unmarked) [Compound A15]
28 | 1.5 nM | O=C1CCC(N2Cc3cc(C(=O)NCC4CCN(c5cc(-c6cccc7ccccc67)ccn5)CC4)ccc3C2=O)C(=O)N1 (centres unmarked) [Compound A16]
29 | 5.5 nM | O=C1CCC(N2Cc3cc(C(=O)NCC4CCN(c5cncc(-c6cccc7ccccc67)c5)CC4)ccc3C2=O)C(=O)N1 (centres unmarked) [Compound A18]
30 | 21 nM | O=C1CCC(N2Cc3cc(C(=O)NCC4CCN(c5ccnc(-c6cccc7ccccc67)n5)CC4)ccc3C2=O)C(=O)N1 (centres unmarked) [Compound A20]
31 | 4 nM | O=C1CCC(N2Cc3cc(NC(=O)CC4CCN(c5cccc(-c6cccc7ccccc67)c5)CC4)ccc3C2=O)C(=O)N1 (centres unmarked) [Compound A22]
32 | 0.3 nM | O=C1CCC(N2Cc3cc(NC(=O)CC4CCN(c5cnc(-c6cccc7ccccc67)s5)CC4)ccc3C2=O)C(=O)N1 (centres unmarked) [Compound A25]
33 | < 0.2 nM | O=C1CCC(N2Cc3cc(NC(=O)CC4CCN(c5ncc(-c6cccc7cccc(F)c67)s5)CC4)ccc3C2=O)C(=O)N1 (centres unmarked) [Compound A26]
34 | 3.7 nM | O=C1CCC(N2Cc3cc(C(=O)NCC4CCN(c5ncc(-c6cccc7ccccc67)o5)CC4)ccc3C2=O)C(=O)N1 (centres unmarked) [Compound A27]
35 | < 0.2 nM | O=C1CCC(N2Cc3cc(NC(=O)CC4CCN(c5cnc(-c6cccc7ccccc67)cn5)CC4)ccc3C2=O)C(=O)N1 (centres unmarked) [Compound A31]
36 | 12 nM | O=C1CCC(N2Cc3cc(NC(=O)CC4CCN(c5ccc(-c6cccc7ccccc67)nn5)CC4)ccc3C2=O)C(=O)N1 (centres unmarked) [Compound A32]
37 | 0.3 nM | O=C1CCC(N2Cc3cc(NC(=O)CC4CCN(c5cnc(-c6cccc7ccccc67)nc5)CC4)ccc3C2=O)C(=O)N1 (centres unmarked) [Compound A33]
38 | < 0.2 nM | O=C1CCC(N2Cc3cc(C(=O)NCC4CCN(c5ccc(-c6cccc7ccccc67)cn5)CC4)ccc3C2=O)C(=O)N1 (centres unmarked) [Compound A34]
39 | < 0.2 nM | O=C1CCC(N2Cc3cc(NC(=O)CC4CCN(c5ccc(-c6cccc7ccccc67)cn5)CC4)ccc3C2=O)C(=O)N1 (centres unmarked) [Compound A35]
40 | 0.3 nM | O=C1CCC(N2Cc3cc(C(=O)NCC4CCN(c5ccc(-c6cccc7ccccc67)nc5)CC4)ccc3C2=O)C(=O)N1 (centres unmarked) [Compound A36]
41 | 0.2 nM | O=C1CCC(N2Cc3cc(NC(=O)CC4CCN(c5ccc(-c6ccc7ccccc7c6)cn5)CC4)ccc3C2=O)C(=O)N1 (centres unmarked) [Compound A41]
42 | < 0.2 nM | O=C1CCC(N2Cc3cc(NC(=O)CC4CCN(c5ccc(-c6nccc7ccccc67)cn5)CC4)ccc3C2=O)C(=O)N1 (centres unmarked) [Compound A46]
43 | < 0.2 nM | O=C1CCC(N2Cc3cc(NC(=O)CC4CCN(c5ncc(-c6ccccc6)cn5)CC4)ccc3C2=O)C(=O)N1 (centres unmarked) [Compound A51]
44 | < 0.2 nM | O=C1CCC(N2Cc3cc(NC(=O)CC4CCN(c5ncc(-c6ccccc6Cl)cn5)CC4)ccc3C2=O)C(=O)N1 (centres unmarked) [Compound A54]
45 | < 0.2 nM | O=C1CCC(N2Cc3cc(NC(=O)CC4CCN(c5ccc(-c6cccc(Cl)c6)cn5)CC4)ccc3C2=O)C(=O)N1 (centres unmarked) [Compound A56]
46 | < 0.2 nM | O=C1CCC(N2Cc3cc(NC(=O)CC4CCN(c5ccc(-c6cccc(Cl)c6)nc5)CC4)ccc3C2=O)C(=O)N1 (centres unmarked) [Compound A57]
47 | < 0.2 nM | O=C1CCC(N2Cc3cc(NC(=O)CC4CCN(c5ccc(-c6cccc(C(F)(F)F)c6)cn5)CC4)ccc3C2=O)C(=O)N1 (centres unmarked) [Compound A58]
